Tests used:
CYP2C9 [1] = target: T1, CYP2C9 (Homo sapiens, UniProt P11712); test: Radiometric CYP2C9 assay using [4′-3H]-diclofenac: formation of [3H]-H2O in pooled human liver microsomes
Experimental: (§1) Radiometric CYP2C9 assays using [4′-^3H]-diclofenac. […] (Woburn, Mass.). Inhibitors were added to the reaction mixture from stock solutions in DMSO/acetonitrile/water (35:25:40, v/v), giving final solvent concentrations of 0.7% DMSO and 0.5% acetonitrile. No inhibitor controls contained an equivalent amount of vehicle. Following preincubation for 10 minutes at 37° C., reactions were started by addition of 1 mM NADPH and an NADPH regenerating system containing 5 mM glucose-6-phosphate, 3 mM MgCl2, and 1 U/mL glucose-6-phosphate dehydrogenase. Assays were conducted for 10 minutes at 37° C. and stopped by addition of HCl to a final concentration of 0.1 N. Plates were then centrifuged for 10 minutes in a microplate rotor and supernatants loaded into the wells of a preconditioned 10 mg OASIS 96-well HLB plate. OASIS HLB 96 well extraction plates and vacuum manifold are available from Waters Corp., Newcastle, Del. Vacuum was applied and the void volume collected in the collection plate. Then, 75 μL of water was added, vacuum was applied again, and the wash was collected into the same plate. Pooled void volume and water wash were transferred into scintillation vials and counted in a beta-scintillation counter. Alternatively, aliquots were counted in 24- or 96-well scintillation plates using a TOPCOUNT scintillation counter (Packard, Perkin Elmer, Boston, Mass.). For the calculation of enzyme activity, product counts were corrected by subtraction of counts obtained in control incubations performed in the absence of NADPH regenerating system.
Calculation of the apparent rate of formation of unlabelled product from tracer competition experiments. When assays are performed using a fixed amount of [4′-^3H]-diclofenac and varying concentrations of unlabelled diclofenac, the velocity of formation of unlabelled product, v, is given by: v=v*/SAP equation 3 where v* is the velocity of formation of tritiated water. Substituting from equation 2, we obtain: v=v*x(^TV/K)/SA0 equation 4 Defining v′ as the velocity of formation of unlabelled product divided by the kinetic isotope effect, i.e. v′=v/(^TV/K) equation 5 we obtain v′=v*/SA0 equation 6 Without using the known ^TV/K ratio (which would be tautological, since it was derived from SAP), v′, the apparent formation rate of unlabelled product, can be calculated. When plotted against the substrate concentration, S, and fitted to the Hill equation (equation 7), V′max, S50, the substrate concentration at 50%, and n, the Hill coefficient, can be derived.

CYP2C9 [2] = target: T1, CYP2C9; test: in vitro
Experimental: as §1
Quantification of 4′hydroxydiclofenac. Aliquots of the assay reaction mixture and of metabolite standard curves were analyzed by HPLC using an Agilent HP1100 liquid chromatograph (Agilent Technologies) equipped with a CTC Analytics PAL Autosampler (HTS PAL; CTC Analytics AG, Switzerland). Chromatography was performed on a XTERRA MS C18 column (4.6 mm×5 cm; 5 μm; Waters Corp., Medford, Mass.) at a flow rate of 2 mL/min, using a mobile phase consisting of a mixture of 0.1% formic acid in water (A) and 0.1% formic acid in acetonitrile (B) (linear gradient 0 to 0.5 min, 10% B; 3.0 min 90% B, 3.5 min 90% B, 3.6 min 10% B; the system was equilibrated for 1.4 minutes at 10% B prior to the next injection). The eluate was diverted to waste for the first minute, and then to a Sciex API-3000 triple quadruple mass spectrometer (available, for example, from Perkin Elmer, Boston, Mass.) with a Turbo Ionspray ionization source operated in the positive ion mode. […] Metabolite concentrations were determined by weighted linear least-squares regression analysis, using Analyst Quantitation Wizard software version 1.2 (Applied Biosystems, Foster City, Calif.).
To compare IC50 values of several known CYP2C9 inhibitors obtained in the radiometric assay with those obtained by conventional HPLC-mass spectrometric assay, reactions were performed in the absence or presence of different concentrations of known inhibitors. Tritiated water formation and formation of unlabelled reaction product 4′OH-diclofenac were determined in the same reaction mixture. The 4′-OH-diclofenac was quantified by HPLC coupled to triple quadruple mass spectrometric analysis.

CYP2C9 [3] = target: T1, CYP2C9; conditions: sulfaphenazole at 10 μM, 10 μM unlabelled diclofenac, FIG. 12
CYP2C9 [4] = target: T1, CYP2C9; conditions: Cohen et al.; cited from earlier work

T1 sequence (P11712 whole entry): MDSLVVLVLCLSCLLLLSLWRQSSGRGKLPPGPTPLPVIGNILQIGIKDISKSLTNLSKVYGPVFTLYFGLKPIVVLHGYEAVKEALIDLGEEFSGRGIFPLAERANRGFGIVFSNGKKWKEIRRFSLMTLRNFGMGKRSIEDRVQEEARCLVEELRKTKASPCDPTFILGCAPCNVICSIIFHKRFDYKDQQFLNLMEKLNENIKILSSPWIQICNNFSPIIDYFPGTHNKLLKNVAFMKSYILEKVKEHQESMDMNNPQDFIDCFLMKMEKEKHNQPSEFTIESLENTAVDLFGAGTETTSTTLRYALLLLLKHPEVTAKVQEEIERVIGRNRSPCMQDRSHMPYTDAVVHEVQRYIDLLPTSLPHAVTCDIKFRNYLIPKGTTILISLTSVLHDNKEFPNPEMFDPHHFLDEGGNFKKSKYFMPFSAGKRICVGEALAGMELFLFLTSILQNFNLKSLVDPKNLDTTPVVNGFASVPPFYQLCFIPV

Row | Structure (SMILES) | IC50 (CYP2C9 [1]) [µM] | Ratio (radiometric/conventional) (CYP2C9 [1]) | IC50 (CYP2C9 [2]) [µM] | also measured
1 | Cc1ccc(C)c(OCCCC(C)(C)C(=O)O)c1 [Gemfibrozil] | 27.7 ± 6.9 | 0.71 | 39.1 ± 7.1 | 
2 | COc1ccc2c(c1)c(CC(=O)O)c(C)n2C(=O)c1ccc(Cl)cc1 [Indomethacin] | 54.8 ± 8.1 | 0.96 | 57 ± 10.5 | 
3 | COCC(=O)O[C@]1(CCN(C)CCCc2nc3ccccc3[nH]2)CCc2cc(F)ccc2[C@@H]1C(C)C [Mibefradil] | 40 ± 5 | 0.69 | 57.6 ± 9.9 | 
4 | Clc1ccc(COC(Cn2ccnc2)c2ccc(Cl)cc2Cl)c(Cl)c1 (centres unmarked) [Miconazole] | 0.2 ± 0.02 | 1.54 | 0.13 ± 0.03 | 
5 | COc1ccc2[nH]c([S+]([O-])Cc3ncc(C)c(OC)c3C)nc2c1 (centres unmarked) [Omeprazole] | 43.8 ± 10.4 | 1.04 | 42.3 ± 15.3 | 
6 | CCCCC1C(=O)N(c2ccccc2)N(c2ccccc2)C1=O [Phenylbutazone] | 41.4 ± 6.5 | 0.94 | 44.2 ± 2.2 | 
7 | CC(=O)[C@H]1CC[C@H]2[C@@H]3CCC4=CC(=O)CC[C@]4(C)[C@H]3CC[C@]12C [Progesterone] | 25.2 ± 3.1 | 1.26 | 20 ± 4.6 | 
8 | CC(=O)C[C@@H](c1ccccc1)c1c(O)c2ccccc2oc1=O [S-Warfarin] |  |  |  | IC50 (CYP2C9 [1]; read-out: IC50 (μM) radiometric, HLM, formation rate of [3H]-H2O from [4′-3H]-diclofenac, mean ± SEM, n = 2): 14.6 ± 2.3 µM; IC50 (CYP2C9 [2]; read-out: IC50 (μM) Conventional, HLM, formation rate of 4′-hydroxydiclofenac by LC-MS/MS, same reaction mixture, mean ± SEM, n = 2): 8.7 ± 3.6 µM
9 | Nc1ccc(S(=O)(=O)Nc2ccnn2-c2ccccc2)cc1 [Sulfaphenazole] |  | 0.96 |  | effect on NADPH-dependent formation of tritiated water from [4′-3H]-diclofenac in HLM (in words) (CYP2C9 [1]; human, microsomes): inhibited; effect on formation of tritiated water from [4′-3H]diclofenac in human hepatocytes (in words) (CYP2C9 [3]): almost totally inhibited
10 | O=C(O)Cc1ccccc1Nc1c(Cl)cccc1Cl [diclofenac] |  |  |  | ratio between V′max and Vmax (CYP2C9 [1]): 0.9; Hill coefficient n (v′ vs. S) (CYP2C9 [1]; human, 10 min, pH 7.6): 1.15±0.05; V′max (apparent maximal rate of product formation) (CYP2C9 [1]; human, 10 min, pH 7.6): 1.5 ± 0.1 nmol/min/mg; Km at 10 min (CYP2C9 [1]; human, microsomes, pH 7.6): 6.8 ± 1 µM; Hill coefficient of 4′-hydroxydiclofenac formation (CYP2C9 [2]; human, 10 min, pH 7.6): 1.1±0.1; Km at 10 min (CYP2C9 [2]; human, microsomes, pH 7.6): 6.2 ± 0.9 µM; Km (CYP2C9 [2]; human, pH 7.6): ~6 µM
11 | Cc1nc2c([nH]1)c(=O)n(C)c(=O)n2Cc1ccco1 [furafylline] |  |  |  | effect on NADPH-dependent formation of tritiated water from [4′-3H]-diclofenac in HLM (in words) (CYP2C9 [1]; human, microsomes): none of these agents significantly affected
12 | CC(=O)CC(c1ccccc1)c1c(O)c2ccccc2oc1=O (centres unmarked) [warfarin] |  |  |  | inhibitor of CYP2C9 when probed with the fluorogenic substrate MFC (CYP2C9 [4]): not
